Source: patent publication US9018244B2, “Benzopyran compounds, compositions and uses thereof” (Olema Pharmaceuticals, Inc., priority 2011, dated 2015)
Entries after “also recorded” stand apart in the source; their conditions may differ.

Tests used:
[1] = tested on: alkaline phosphatase (AP) activity in ECC-1 cells; assay: Alkaline phosphatase (AP) assay in ECC-1 cells, agonist mode (without E2); format: cell-based, human; details: without E2, 3 days
Source text: FIG. 2. Alkaline phosphatase (AP) activity in ECC-1 cells correlates with the uterine wet weight of ovariectomized rats, as reported previously in Scafonas, et al. (*; Scafonas et al. “Agonist-like SERM effects on ER alpha-mediated repression of MMPI promoter activity predict in vivo effects on bone and uterus. J Steroid Biochem Mol. Biol. 2008 110(3-5):197-206) and Labrie, et al. (†; Labrie et al. “The combination of a novel selective estrogen receptor modulator with an estrogen protects the mammary gland and uterus in a rodent model: the future of postmenopausal women's health?” Endocrinology. 2003 144(11):4700-6). ECC-1 cells were treated with 500 pM 17β-estradiol (E2) or 1-5 nM anti-estrogens in hormone-depleted medium for 3 days. […] AP activity was measured by incubating a chromogenic AP substrate, p-nitrophenyl phosphate, at 40° C. for 40 minutes followed by measuring the absorbance at 405 nm. […]
FIG. 3. […] ECC-1 cells were treated with 100 nM anti-estrogens and AP activity was measured as described in FIG. 2. […] Note that OP-1038 was statistically different from Aragon Compound 28 (WO2011/156518), EM-343 and Gauthier compound Ia (p≦0.01 (exact p values stated in graph), calculated using Student's t-test).
Method for performing the alkaline phosphatase (AP) assay. […] Absorbance was read at 405 nm using a plate spectophotometer. […]

[2] = Single dose oral pharmacokinetics study in female rats; format: in vivo, female Sprague Dawley rats
Procedure: The oral bioavailabilty in rats of OP-1038 was determined in the following study. 3 rats (female Sprague Dawley, non-fasted) were dosed by oral gavage (5 mg/kg body weight) in 0.5% CMC in water with a comparison to intravenous dosing (3 mg/kg body weight). Plasma was collected at the following hourly time points from rats in both groups (0, 0.08, 1.0, 2.0, 4.0, 8.0, 16.0, 24.0, 48.0 and 96.0 hours post dosing). Plasma concentrations of OP-1038 were determined by HPLC.

[3] = tested on: E2-stimulated estrogen response element (ERE)-regulated reporter gene activity; assay: ERE-tk109-Luc reporter gene assay in MCF-7 cells; format: cell-based, human; details: 100 pM E2, 18-22 hours
Procedure: FIG. 10. […] A) OP-1074 had similar potency to model anti-estrogens in the ERE reporter gene assay. MCF-7 cells were transiently transfected with ERE-tk109-Luc and treated with anti-estrogens in hormone-depleted medium in the presence of 100 pM E2 for 22 hours. Results were from a single representative experiment and reported as the mean percent induction relative to E2 from triplicate treatments, with error bars representing SEM. […] Results were from a single representative experiment and reported as the mean percent induction relative to E2 from triplicate treatments, with error bars representing SEM. IC50's were calculated using the least squares fit method.
Compounds of invention are tested for their inhibitory activity of estrogen according to the assay methods described in Hodges-Gallagher, L., Valentine, C. V., El Bader, S. and Kushner, P. J. (2007) “Histone Deacetylase Inhibitors Enhance the Efficacy of Hormonal Therapy Agents on Breast Cancer Cells and Blocks Anti-estrogen-Driven Uterine Cell Proliferation” Breast Cancer Res Treat, November; 105(3):297-309. Specifically, an estrogen-responsive reporter gene (ERE-tk109-Luc) was transiently transfected into MCF-7 cells and treated with anti-estrogens in triplicate in the presence of 100 pM 17β-estradiol (E2) for 18-22 hours. Luciferase activity was normalized to activity of E2 alone and IC50's were calculated using the least squares fit method. This method is also described in legend for FIG. 10.

mouse uterus = assay: Uterine wet weight in ovariectomized BALB/c mice; format: in vivo; details: for Uterine wet weight, agonist mode (without E2): q.d. three days, 100 mg/ml OP-1038 p.o. in 0.5% CMC; for Uterine wet weight, antagonist mode (+E2): three days, co-treated with 0.1 μg/ml E2 sc
Procedure: FIG. 9. […] Uterine wet weight was measured at the end of three days after treating ovariectomized BALB/c mice q.d. with vehicle or one of the following treatments (10 mice per group): 50 mg/kg tamoxifen p.o. in 0.5% carboxymethylcellulose (CMC); 50 mg/kg fulvestrant sc in 5% ethanol; […] OP-1038 p.o. in 0.5% CMC. Half the animals in each group were co-treated with 0.1 μg/ml E2 sc in cottonseed oil-ethanol (95:5), or vehicle alone. Animal experiments were conducted at the University of California, San Francisco following institutional animal care and use committee protocols.

[4] = Sprague-Dawley, rat, plasma, Oral, 5.00 mg/kg, female S.D. rats

SMILES: CC1=C(c2ccc(O)cc2)C(c2ccc(OCCN3CC[C@@H](C)C3)cc2)Oc2cc(O)ccc21 (stereo partly drawn) [OP-1038, 3-(4-hydroxyphenyl)-4-methyl-2-(4-{2-[(3R)-3-methylpyrrolidin-1-yl]ethoxy}phenyl)-2H-chromen-7-ol]
- Estrogenic activity: AP activity, percent induction relative to E2 [1]: lacks estrogenic activity; also recorded: less estrogenic than Aragon Compound 28
- AUCextrap ([2]; Oral, 5.00 mg/kg, female S.D. rats): 10.1 ± 6.26%
- bioavailability ([2]; Sprague-Dawley, rat, plasma, Oral 5 mg/kg compared to intravenous 3 mg/kg, female S.D. rats, read-out: F % (Oral bioavailability)): 18.9%
- Cmax ([2]; Sprague-Dawley, rat, plasma, Oral, 5.00 mg/kg, 0.5% CMC, female S.D. rats): 24.8 ± 3 ng/mL
- AUC(0-inf) [2, 4]: 671 ± 44.8 ng·h/mL
- MRT last [2, 4]: 25.9 ± 3.37 h
- Tmax [2, 4]: 2.33 ± 1.53 h
- half-life [2, 4]: 28.5 ± 11.6 h
- AUC(0-t) ([2]; Sprague-Dawley, rat, plasma, Oral, 5.00 mg/kg, female S.D. rats, read-out: AUClast (0 to 96 h)): 603 ± 46.7 ng·h/mL
- Oral bioavailability (in words) ([2]; oral gavage 5 mg/kg in rats): orally bioavailable
- Antagonism of E2-stimulated ERE-regulated reporter gene activity [3]: improved potency; also recorded: potent antagonists
- Uterine wet weight, agonist mode (without E2) (mouse uterus): not significantly different from control or fulvestrant
- Uterine wet weight, antagonist mode (+E2) (mouse uterus): not different from fulvestrant

SMILES: CC1=C(c2ccc(O)cc2)[C@H](c2ccc(OCCN3CC[C@@H](C)C3)cc2)Oc2cc(O)ccc21 [OP-1074, (2S)-3-(4-hydroxyphenyl)-4-methyl-2-(4-{2-[(3R)-3-methylpyrrolidin-1-yl]ethoxy}phenyl)-2H-chromen-7-ol]
- Estrogenic activity: AP activity, percent induction relative to E2 [1]: essentially no estrogenic activity; also recorded: lack estrogenic activity; also recorded: did not stimulate AP activity
- Antagonism of E2-stimulated ERE-regulated reporter gene activity [3]: improved potency; also recorded: potent antagonists
- Uterine wet weight, agonist mode (without E2) (mouse uterus): essentially pure anti-estrogen
- Uterine wet weight, antagonist mode (+E2) (mouse uterus): complete anti-estrogen
